Data on eight compounds can be found in patent US8030321B2, “Benzofuro- and benzothienopyrimidine modulators of the histamine H4 receptor” (Janssen Pharmaceutica, NV, priority 2006, dated 2011).

Structures can show the parent of a compound that is named as a salt. Where only a bound is given, the exact number is not on record here.

This assay addresses T1, human histamine H4 receptor (Homo sapiens, UniProt Q9H3N8).
T1 construct: expressed in transfected cells; host or cells: SK-N-MC cells or COS7 cells, transiently transfected; cell membranes used
Briefly: Binding Assay on Recombinant Human Histamine H4 Receptor. The note with it: competition binding with 3H-histamine (5 nM), membranes of SK-N-MC or COS7 cells expressing human H4 receptor; Cheng-Prusoff, KD 5 nM; average of results obtained; read-out: Ki. In short, it runs like this:
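Membranes from SK-N-MC or COS7 cells transiently transfected with human H4 receptor were incubated with ³H-histamine (5-70 nM); nonspecific binding defined with 10,000 nM histamine. Bound radioactivity collected by GF/C filtration and scintillation counting; test compounds assessed by displacement of ³H-ligand binding across concentrations.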

T1 sequence (Q9H3N8 whole entry): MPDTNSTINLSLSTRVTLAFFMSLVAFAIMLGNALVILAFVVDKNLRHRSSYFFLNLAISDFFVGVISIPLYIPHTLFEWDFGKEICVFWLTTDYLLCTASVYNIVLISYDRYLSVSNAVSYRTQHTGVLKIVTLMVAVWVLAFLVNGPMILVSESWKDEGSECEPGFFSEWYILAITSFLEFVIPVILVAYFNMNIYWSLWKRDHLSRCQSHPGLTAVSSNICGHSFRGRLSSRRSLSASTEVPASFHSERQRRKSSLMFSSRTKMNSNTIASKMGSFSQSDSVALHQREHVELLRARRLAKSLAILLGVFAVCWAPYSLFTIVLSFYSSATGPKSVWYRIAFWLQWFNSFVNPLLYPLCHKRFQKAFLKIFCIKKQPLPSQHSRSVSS

For `Nc1nc(N2CCC[C@H](N)C2)c2oc3cccc(Cl)c3c2n1` [Example 154, (S)-4-(3-Amino-piperidin-1-yl)-9-chloro-benzo[4,5]furo[3,2-d]pyrimidin-2-ylamine trifluoroacetic acid salt], the Ki was over 10 µM.
Then `Nc1nc(N2C[C@@H]3C[C@H]2CN3)c2oc3cccc(Cl)c3c2n1` [Example 155, (S,S)-9-Chloro-4-(2,5-diaza-bicyclo[2.2.1]hept-2-yl)-benzo[4,5]furo[3,2-d]pyrimidin-2-ylamine trifluoroacetic acid salt], with 0.46 µM; and `Nc1nc(N2CC(N)C2)c2oc3cccc(Cl)c3c2n1` [Example 156, 4-(3-Amino-azetidin-1-yl)-9-chloro-benzo[4,5]furo[3,2-d]pyrimidin-2-ylamine trifluoroacetic acid salt], with over 10 µM.
As for `COc1ccc2c(c1)sc1c(N3CCN(C)CC3)nc(N)nc12` [Example 159, 7-Methoxy-4-(4-methyl-piperazin-1-yl)-benzo[4,5]thieno[3,2-d]pyrimidin-2-ylamine trifluoroacetic acid salt], the Ki was 0.18 µM.
The result for `OCCNc1nc(N2CCNCC2)c2oc3ccc(Cl)cc3c2n1` [Example 160, 2-(8-Chloro-4-piperazin-1-yl-benzo[4,5]furo[3,2-d]pyrimidin-2-ylamino)-ethanol] reads over 10 µM.
Consider `N[C@H]1CCCN(c2nc(NCCO)nc3c2oc2ccc(Cl)cc23)C1` [Example 161, (S)-2-[4-(3-Amino-piperidin-1-yl)-8-chloro-benzo[4,5]furo[3,2-d]pyrimidin-2-ylamino]-ethanol], for which the Ki is over 10 µM.
With `NC1CN(c2nc(NCCO)nc3c2oc2ccc(Cl)cc23)C1` [Example 162, 2-[4-(3-Amino-azetidin-1-yl)-8-chloro-benzo[4,5]furo[3,2-d]pyrimidin-2-ylamino]-ethanol], the Ki is over 10 µM.
Then `CN1CCN(c2nc(N(C)C)nc3c2oc2ccc(Cl)cc23)CC1` [Example 163, [8-Chloro-4-(4-methyl-piperazin-1-yl)-benzo[4,5]furo[3,2-d]pyrimidin-2-yl]-dimethyl-amine], with 0.718 µM.
